Laboratory results: paper PMC1925065, “Functional characterization of two melanocortin (MC) receptors in lamprey showing orthology to the MC1 and MC4 receptor subtypes” (BMC Evolutionary Biology, 2007)
Where two headings read alike, the source gives them in different places. Bridge positions count the residues as written; N and C are the ends. Square brackets hold non-standard residues; d marks the D form. Peptide text beside a SMILES is read from it. d2Nal = N[C@H](Cc1ccc2ccccc2c1)C(=O)O; Nle = CCCC[C@H](N)C(=O)O

Columns and labels:
[1] = target: human MC1; settings: mean ± SEM, cited from earlier work; for Ki: competition
[2] = target: human MC3; settings: mean ± SEM, cited from earlier work; for Ki: competition
[3] = target: human MC5; settings: mean ± SEM, cited from earlier work; for Ki: competition
[4] = target: T1, lamprey MCa receptor (Lampetra fluviatilis, UniProt A6XB56); assay: Radioligand binding assay (saturation and competition, [125I] NDP-MSH), lamprey MCa; parameters: species or system river lamprey; settings: for affinity for lamprey MCa compared to the human MC1 and MC3 receptors: p < 0.01 for α-MSH, γ-MSH, ACTH(1–39)
T1 sequence (A6XB56 1-341): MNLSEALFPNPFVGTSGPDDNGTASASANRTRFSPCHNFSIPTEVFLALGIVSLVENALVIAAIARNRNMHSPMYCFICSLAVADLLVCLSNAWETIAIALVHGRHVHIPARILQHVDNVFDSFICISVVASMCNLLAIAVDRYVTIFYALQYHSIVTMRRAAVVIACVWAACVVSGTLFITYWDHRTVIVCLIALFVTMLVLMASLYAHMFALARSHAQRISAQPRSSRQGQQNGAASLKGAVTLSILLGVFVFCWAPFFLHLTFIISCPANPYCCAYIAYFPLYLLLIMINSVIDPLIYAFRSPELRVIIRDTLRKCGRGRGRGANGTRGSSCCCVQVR
Description: HEK-293 (human embryonic kidney) cells with Epstein-Barr nuclear antigen (EBNA) grown to 50–70% confluence were transfected with 10 μg of the construct using FuGENE-6 Transfection Reagent (Roche, Sweden) according to the manufacturers' instruction. The cells were grown in Dulbeccos Modified Eagle Media and F-12 Nutrient Mixture (D-MEM/F-12) (1:1) with GlutaMAX I containing 10% foetal bovine serum, 100 u/ml penicillin, 100 μg/ml streptomycin, 2.5 ug/ml amphotericin B, and 250 μg/ml geneticin G-418 (Invitrogen); in humidified atmosphere of 95% air and 5% CO2 at 37°C. Semi-stable cell lines, expressing target receptor, were obtained by selecting for growth in the presence of 100 μg/ml hygromycin B (Invitrogen), first added 24 hours after transfection.
HEK-293 EBNA cells expressing MC receptors were harvested from plate and resuspended in binding buffer composed of 25 mM HEPES, 2.5 mM CaCl2, 1 mM MgCl2 and 0.2% bacitracin, pH adjusted to 7.4. To obtain the membranes, cells were mechanically homogenized with Ultra Turrax. Cell suspensions were centrifuged for 3 min at 190 g and membranes were collected from the supernatant by centrifugation for 15 min at 20000 g. The pellet was resuspended in binding buffer. The binding was performed in a final volume of 100 μl for 2 h at room temperature. Saturation experiments were carried out with serial dilutions of [^125I] […] Competition experiments were performed with constant 0.6 nM concentration of [^125I] […] The membranes were collected by filtration on Glass Fibre filters, Filtermat A (Perkin Elmer, USA), using a TOMTEC Mach III cell harvester (Orange, CT, USA). The filters were washed with 5 ml per well of 50 mM Tris HCl (pH 7.4) and dried at 50°C. MeltiLex A scintillator sheets (Perkin Elmer, USA) were melted on dried filters and radioactivity was counted with an automatic Microbeta counter 1450 (Perkin Elmer). Binding assays were performed in duplicate with at least three independent experiments. […] The results were analysed with Prism 3.0 software package (GraphPad, USA). Binding affinities were compared with one-way ANOVA Tukey's post-hoc tests.

[5] = target: human MC4; settings: mean ± SEM, cited from earlier work; for Ki: competition
[6] = system: Non-transfected cells (HEK-293 EBNA); assay: Radioligand binding, non-transfected cells; parameters: species or system human; settings: [125I] NDP-MSH
Description: HEK-293 EBNA cells expressing MC receptors were harvested from plate and resuspended in binding buffer composed of 25 mM HEPES, 2.5 mM CaCl2, 1 mM MgCl2 and 0.2% bacitracin, pH adjusted to 7.4. To obtain the membranes, cells were mechanically homogenized with Ultra Turrax. Cell suspensions were centrifuged for 3 min at 190 g and membranes were collected from the supernatant by centrifugation for 15 min at 20000 g. The pellet was resuspended in binding buffer. The binding was performed in a final volume of 100 μl for 2 h at room temperature. Saturation experiments were carried out with serial dilutions of [^125I] NDP-MSH { [Nle^4, D-Phe^7]α-MSH}, labelled by the Chloramine-T method. Non-specific binding was determined in the presence of 1 μM unlabeled NDP-MSH. Competition experiments were performed with constant 0.6 nM concentration of [^125I] NDP-MSH and serial dilutions of competing unlabelled human ligands: NDP-MSH, α-MSH, β-MSH, γ1-MSH, ACTH (1–17) ACTH (1–24) ACTH (1–39), MTII, HS024) (Neosystem, France) and lamprey ligands: MSH-A, MSH-B, ACTH(1–31). […] MeltiLex A scintillator sheets (Perkin Elmer, USA) were melted on dried filters and radioactivity was counted with an automatic Microbeta counter 1450 (Perkin Elmer). […] The results were analysed with Prism 3.0 software package (GraphPad, USA). […]

[7] = comparison with previously published human values
[8] = saturation, [125I] NDP-MSH, ref [42]

## β-melanocyte stimulating hormone [β-MSH]
[1]; ref [38]
  Ki: 2.53 ± 0.93 nM
[2]; ref [42]
  Ki: 15.1 ± 3.4 nM
[3]; ref [39]
  Ki: 14400 ± 1670 nM
[4]; [7]
  affinity for lamprey MCa compared to the human MC4 and MC5 receptors: clearly higher affinities
  affinity for lamprey MCa compared to the human MC1 and MC3 receptors: clearly lower affinities
[5]; ref [42]
  Ki: 387 ± 208 nM

## CCCC[C@@H]1NC(=O)[C@@H](NC(C)=O)CSSC[C@@H](C(N)=O)NC(=O)CNC(=O)[C@H](Cc2c[nH]c3ccccc23)NC(=O)[C@H](CCCNC(=N)N)NC(=O)[C@@H](Cc2ccc3ccccc3c2)NC(=O)[C@H](Cc2c[nH]cn2)NC(=O)[C@H](CCCNC(=N)N)NC1=O [HS024] (Ac-C[Nle]RH[d2Nal]RWGC-NH2; disulfide 1-9 (inferred); N-terminus and C-terminus assumed)
[1]; ref [41]
  Ki: 18.6 ± 3.3 nM
[2]; ref [42]
  Ki: 15.1 ± 3 nM
[3]; ref [41]
  Ki: 3.29 ± 1.15 nM
[4]
  Ki: 72.5 ± 1.4 nM
[4]; [7]
  affinity for lamprey MCa compared to the human MC1, MC3, MC4 and MC5 receptors: clearly lower affinities
[5]; ref [42]
  Ki: 0.341 ± 0.089 nM

## CSCC[C@H](NC(=O)[C@H](CO)NC(=O)[C@H](Cc1ccc(O)cc1)NC(=O)[C@@H](N)CO)C(=O)N[C@@H](CCC(=O)O)C(=O)N[C@@H](Cc1c[nH]cn1)C(=O)N[C@@H](Cc1ccccc1)C(=O)N[C@@H](CCCNC(=N)N)C(=O)N[C@@H](Cc1c[nH]c2ccccc12)C(=O)NCC(=O)N[C@@H](CCCCN)C(=O)N1CCC[C@H]1C(=O)N[C@H](C(=O)NCC(=O)N[C@@H](CCCCN)C(=O)N[C@@H](CCCCN)C(=O)N[C@@H](CCCNC(=N)N)C(=O)O)C(C)C [ACTH (1–17)]
[1]; ref [40]
  Ki: 0.23 ± 0.061 nM
[2]; ref [40]
  Ki: 14 ± 4.5 nM
[3]; ref [40]
  Ki: 4240 ± 1200 nM
[4]
  Ki: 51.1 ± 3.2 nM
[4]; [7]
  affinity for lamprey MCa compared to the human MC4 and MC5 receptors: clearly higher affinities
  affinity for lamprey MCa compared to the human MC1 and MC3 receptors: clearly lower affinities
[5]; ref [40]
  Ki: 419 ± 62 nM

## CSCC[C@H](NC(=O)[C@H](CO)NC(=O)[C@H](Cc1ccc(O)cc1)NC(=O)[C@@H](N)CO)C(=O)N[C@@H](CCC(=O)O)C(=O)N[C@@H](Cc1cnc[nH]1)C(=O)N[C@@H](Cc1ccccc1)C(=O)N[C@@H](CCCNC(=N)N)C(=O)N[C@@H](Cc1c[nH]c2ccccc12)C(=O)NCC(=O)N[C@@H](CCCCN)C(=O)N1CCC[C@H]1C(=O)N[C@H](C(=O)NCC(=O)N[C@@H](CCCCN)C(=O)N[C@@H](CCCCN)C(=O)N[C@@H](CCCNC(=N)N)C(=O)N[C@@H](CCCNC(=N)N)C(=O)N1CCC[C@H]1C(=O)N[C@H](C(=O)N[C@@H](CCCCN)C(=O)N[C@H](C(=O)N[C@@H](Cc1ccc(O)cc1)C(=O)N1CCC[C@H]1C(=O)N[C@@H](CC(N)=O)C(=O)NCC(=O)N[C@@H](C)C(=O)N[C@@H](CCC(=O)O)C(=O)N[C@@H](CC(=O)O)C(=O)N[C@@H](CCC(=O)O)C(=O)N[C@@H](CO)C(=O)N[C@@H](C)C(=O)N[C@@H](CCC(=O)O)C(=O)N[C@@H](C)C(=O)N[C@@H](Cc1ccccc1)C(=O)N1CCC[C@H]1C(=O)N[C@@H](CC(C)C)C(=O)N[C@@H](CCC(=O)O)C(=O)N[C@@H](Cc1ccccc1)C(=O)O)C(C)C)C(C)C)C(C)C [ACTH (1–39), adrenocorticotropic hormone] (H-SYSMEHFRWGKPVGKKRRPVKVYPNGAEDESAEAFPLEF-OH)
[4]
  Ki: 291 ± 20 nM

## CSCC[C@H](NC(=O)[C@H](CO)NC(=O)[C@H](Cc1ccc(O)cc1)NC(=O)[C@@H](N)CO)C(=O)N[C@@H](CCC(=O)O)C(=O)N[C@@H](Cc1c[nH]cn1)C(=O)N[C@@H](Cc1ccccc1)C(=O)N[C@@H](CCCNC(=N)N)C(=O)N[C@@H](Cc1c[nH]c2ccccc12)C(=O)NCC(=O)N[C@@H](CCCCN)C(=O)N1CCC[C@H]1C(=O)N[C@H](C(=O)NCC(=O)N[C@@H](CCCCN)C(=O)N[C@@H](CCCCN)C(=O)N[C@@H](CCCNC(=N)N)C(=O)N[C@@H](CCCNC(=N)N)C(=O)N1CCC[C@H]1C(=O)N[C@H](C(=O)N[C@@H](CCCCN)C(=O)N[C@H](C(=O)N[C@@H](Cc1ccc(O)cc1)C(=O)N1CCC[C@H]1C(=O)N[C@@H](CC(N)=O)C(=O)NCC(=O)N[C@@H](C)C(=O)N[C@@H](CCC(=O)O)C(=O)N[C@@H](CC(=O)O)C(=O)N[C@@H](CCC(=O)O)C(=O)N[C@@H](CO)C(=O)N[C@@H](C)C(=O)N[C@@H](CCC(=O)O)C(=O)N[C@@H](C)C(=O)N[C@@H](Cc1ccccc1)C(=O)N1CCC[C@H]1C(=O)N[C@@H](CC(C)C)C(=O)N[C@@H](CCC(=O)O)C(=O)N[C@@H](Cc1ccccc1)C(=O)O)C(C)C)C(C)C)C(C)C [ACTH (1–39), adrenocorticotropic hormone] (H-SYSMEHFRWGKPVGKKRRPVKVYPNGAEDESAEAFPLEF-OH; N-terminus and C-terminus assumed)
[1]; ref [40]
  Ki: 3.95 ± 0.67 nM
[2]; ref [40]
  Ki: 135 ± 22 nM
[3]; ref [40]
  Ki: 4920 ± 610 nM
[4]; [7]
  affinity for lamprey MCa compared to the human MC4 and MC5 receptors: clearly higher affinities
  affinity for lamprey MCa compared to the human MC1 and MC3 receptors: clearly lower affinities
[5]; ref [40]
  Ki: 2170 ± 120 nM

## CSCC[C@H](NC(=O)[C@@H](NC(=O)[C@@H](N)Cc1ccc(O)cc1)C(C)C)C(=O)NCC(=O)N[C@@H](Cc1c[nH]cn1)C(=O)N[C@@H](Cc1ccccc1)C(=O)N[C@@H](CCCNC(=N)N)C(=O)N[C@@H](Cc1c[nH]c2ccccc12)C(=O)N[C@@H](CC(=O)O)C(=O)N[C@@H](CCCNC(=N)N)C(=O)N[C@@H](Cc1ccccc1)C(N)=O [γ1-MSH]
[1]; ref [39]
  Ki: 2.68 ± 0.35 nM
[2]; ref [42]
  Ki: 7.45 ± 2.55 nM
[3]; ref [39]
  Ki: 42600 ± 6600 nM
[4]
  Ki: 684 ± 7 nM
[4]; [7]
  affinity for lamprey MCa compared to the human MC4 and MC5 receptors: clearly higher affinities
  affinity for lamprey MCa compared to the human MC1 and MC3 receptors: clearly lower affinities
[5]; ref [42]
  Ki: 51800 ± 12000 nM

## CCCC[C@H](NC(=O)[C@H](CO)NC(=O)[C@H](Cc1ccc(O)c(I)c1)NC(=O)[C@H](CO)NC(C)=O)C(=O)N[C@@H](CCC(=O)O)C(=O)N[C@@H](Cc1c[nH]cn1)C(=O)N[C@H](Cc1ccccc1)C(=O)N[C@@H](CCCNC(=N)N)C(=O)N[C@@H](Cc1c[nH]c2ccccc12)C(=O)NCC(=O)N[C@@H](CCCCN)C(=O)N1CCC[C@H]1C(=O)N[C@H](C(N)=O)C(C)C [[^125I] NDP-MSH, [Nle^4, D-Phe^7]α-MSH]
[1]; saturation, [125I] NDP-MSH, ref [38]
  Kd: 0.109 ± 0.062 nM
[6]
  specific binding, non-transfected cells: did not show any specific binding
[2]; [8]
  Kd: 0.412 ± 0.121 nM
[3]; saturation, [125I] NDP-MSH, ref [39]
  Kd: 5.05 ± 1 nM
[4]; read-out: Kd (mean ± SEM) from saturation curves, lamprey MCa, HEK-293 EBNA membranes, pH 7.4, 2 h, room temperature, non-specific binding with unlabelled NDP-MSH, mean ± SEM, duplicate, at least three independent experiments
  Kd: 2.46 ± 0.68 nM
[5]; [8]
  Kd: 1.78 ± 0.36 nM
